Measured values: ChEMBL document CHEMBL1201862, “PubChem BioAssay data set” (2004)
Active and inactive are the calls of the source.

How the values were obtained:
[1] = target: Acyl-homoserine lactone acylase PvdQ (Pseudomonas aeruginosa (strain LESB58), UniProt Q9I194); experiment: PvdQ acylase enzyme activity blockers – biochemical, fluorescence, plate reader and imaging, cherry-picks, dose response (AID 493231)
[2] = target: Female germline-specific tumor suppressor gld-1 (Caenorhabditis elegans, UniProt Q17339); experiment: blockers of GLD-1/TGE RNA complex formation – biochemical, fluorescence polarization, C. elegans, dose response (AID 2802);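 further: fluorescence polarization of labeled TGE RNA bound by purified gld-1 protein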
[3] = target: T1, Zinc finger protein mex-5 (Caenorhabditis elegans, UniProt Q9XUB2); experiment: potency of MEX-5 RNA-binding blockers – biochemical, C. elegans, fluorescence polarization, dose response (AID 1960)
T1 sequence (Q9XUB2 whole entry): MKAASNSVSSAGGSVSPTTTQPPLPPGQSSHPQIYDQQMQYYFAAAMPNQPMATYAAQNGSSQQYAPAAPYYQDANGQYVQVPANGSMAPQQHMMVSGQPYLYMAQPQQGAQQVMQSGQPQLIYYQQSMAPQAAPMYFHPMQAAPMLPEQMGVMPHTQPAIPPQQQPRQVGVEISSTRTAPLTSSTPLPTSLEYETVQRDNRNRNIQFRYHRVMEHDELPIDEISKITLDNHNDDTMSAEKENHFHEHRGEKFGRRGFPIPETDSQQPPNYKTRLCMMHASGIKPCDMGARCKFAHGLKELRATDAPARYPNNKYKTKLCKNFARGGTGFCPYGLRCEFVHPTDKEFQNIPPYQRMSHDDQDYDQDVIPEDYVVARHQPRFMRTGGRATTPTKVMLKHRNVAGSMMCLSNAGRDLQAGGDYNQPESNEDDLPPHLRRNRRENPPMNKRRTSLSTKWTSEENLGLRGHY

[4] = target: T2, RNA-binding protein pos-1 (Caenorhabditis elegans, UniProt G5EF15); experiment: disruptors of C. elegans POS-1 RNA interaction – biochemical, fluorescence polarization, dose response (AID 1964);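 further: purified POS-1 fused to maltose binding protein made in E. coli; potency of compounds blocking POS-1 binding to fluorescent RNA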
T2 sequence (G5EF15 whole entry): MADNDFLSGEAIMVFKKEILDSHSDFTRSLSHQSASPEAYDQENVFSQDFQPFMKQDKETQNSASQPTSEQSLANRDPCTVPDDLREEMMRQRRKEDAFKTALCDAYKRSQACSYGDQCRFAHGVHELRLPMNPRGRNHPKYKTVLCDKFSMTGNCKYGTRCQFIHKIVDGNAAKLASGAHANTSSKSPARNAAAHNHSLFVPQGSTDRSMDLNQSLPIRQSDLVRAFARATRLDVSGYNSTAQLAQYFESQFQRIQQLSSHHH

Protein Rev = Protein Rev (Human immunodeficiency virus type 1 group M subtype B (isolate HXB2)(HIV-1), UniProt P04618); experiment: blockers of HIV Rev/RRE RNA complex – biochemical, fluorescence polarization, HIV-1, dose response (AID 434976); design: species or system Human immunodeficiency virus 1
Beta-galactosidase = Beta-galactosidase (Escherichia coli, UniProt Q8VNN2); experiment: detection-enzyme interference by beta-gal modulators – biochemical, E. coli enzyme, set 3, artefact control for CCR6 antagonist project, dose response (AID 504712); type: functional
[5] = target: T3, C-C chemokine receptor type 6 (Homo sapiens, UniProt P51684); experiment: antagonism of CCR6 beta-arrestin recruitment – cell-based, luminescent beta-arrestin readout, dose response (AID 504728); type: functional
T3 sequence (P51684 whole entry): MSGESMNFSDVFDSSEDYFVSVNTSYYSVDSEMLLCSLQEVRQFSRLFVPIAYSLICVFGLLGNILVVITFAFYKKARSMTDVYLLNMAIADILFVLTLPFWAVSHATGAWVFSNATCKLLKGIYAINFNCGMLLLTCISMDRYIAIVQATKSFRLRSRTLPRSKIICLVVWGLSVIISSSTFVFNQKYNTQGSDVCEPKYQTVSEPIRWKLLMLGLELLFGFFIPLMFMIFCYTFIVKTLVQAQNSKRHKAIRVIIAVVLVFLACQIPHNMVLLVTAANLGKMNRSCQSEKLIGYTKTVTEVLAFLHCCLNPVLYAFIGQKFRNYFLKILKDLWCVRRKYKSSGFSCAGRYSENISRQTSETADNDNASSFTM

Bcl-2-like protein 1 = Bcl-2-like protein 1 (Homo sapiens, UniProt Q07817); experiment: blockers of BCLXL peptide binding – biochemical, fluorescence polarization, 1536-well, selectivity assay for MCL1 inhibitor project, dose response (AID 2218)
[6] = target: T4, Alkaline phosphatase, tissue-nonspecific isozyme (Homo sapiens, UniProt P05186); experiment: TNAP enzyme inhibition by screening hits, dose response, selectivity assay for mouse IAP inhibitor project, biochemical, human TNAP, uHTS hits (AID 488906); type: functional
T4 sequence (P05186 whole entry): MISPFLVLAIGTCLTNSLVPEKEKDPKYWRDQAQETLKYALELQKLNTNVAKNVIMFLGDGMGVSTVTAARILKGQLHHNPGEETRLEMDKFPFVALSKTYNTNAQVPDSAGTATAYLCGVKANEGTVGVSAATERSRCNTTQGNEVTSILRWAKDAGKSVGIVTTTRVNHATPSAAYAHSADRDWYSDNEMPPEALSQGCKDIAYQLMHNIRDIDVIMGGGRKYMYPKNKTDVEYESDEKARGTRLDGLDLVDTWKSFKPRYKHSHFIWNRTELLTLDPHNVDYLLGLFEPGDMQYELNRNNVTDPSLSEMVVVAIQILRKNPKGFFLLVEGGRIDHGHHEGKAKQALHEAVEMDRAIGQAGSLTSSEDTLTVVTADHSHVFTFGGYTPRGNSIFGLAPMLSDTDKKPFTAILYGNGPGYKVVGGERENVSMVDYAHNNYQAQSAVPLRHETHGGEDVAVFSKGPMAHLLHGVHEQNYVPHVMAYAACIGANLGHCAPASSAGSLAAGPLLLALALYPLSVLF

[7] = target: Intestinal-type alkaline phosphatase (Homo sapiens, UniProt P09923); experiment: inhibition of human intestinal alkaline phosphatase – biochemical, dose response (AID 488876); type: functional
[8] = target: 1-phosphatidylinositol 4,5-bisphosphate phosphodiesterase gamma-1 (Homo sapiens, UniProt P19174); experiment: Counterscreen for inhibitors of phospholipase C isozymes (PLC-B3): Fluorescence-based biochemical high throughput dose response assay to identify inhibitors of phospholipase C isozymes (PLC-gamma1).
Genome polyprotein = Genome polyprotein (dengue virus type 2, UniProt P29990); experiment: flavivirus cap methylation enzyme inhibition – biochemical, confirmation dose response, primary screen (AID 588689); type: functional
[9] = target: Induced myeloid leukemia cell differentiation protein Mcl-1 (Homo sapiens, UniProt Q07820); experiment: blockers of MCL1 binding to BIM peptide – biochemical, fluorescence polarization, BIM-BH3 peptide, 1536-well, dose response (AID 2217)
Large T antigen = Large T antigen (Simian virus 40, UniProt P03070); type: functional, Betapolyomavirus macacae;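 further: Confirmatory-stage PubChem screen for compounds that inhibit SV40 T antigen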
HeLa = experiment: viability loss in HeLa cells – cell-based, 24 h, cherry-picked samples, cytotoxicity control, dose response (AID 504726); type: functional; conditions: Homo sapiens;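 further: potency for cytotoxicity as loss of luminescence signal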
[10] = target: T5, Histone-lysine N-methyltransferase NSD2 (Homo sapiens, UniProt O96028); type: biochemical
T5 sequence (O96028 whole entry): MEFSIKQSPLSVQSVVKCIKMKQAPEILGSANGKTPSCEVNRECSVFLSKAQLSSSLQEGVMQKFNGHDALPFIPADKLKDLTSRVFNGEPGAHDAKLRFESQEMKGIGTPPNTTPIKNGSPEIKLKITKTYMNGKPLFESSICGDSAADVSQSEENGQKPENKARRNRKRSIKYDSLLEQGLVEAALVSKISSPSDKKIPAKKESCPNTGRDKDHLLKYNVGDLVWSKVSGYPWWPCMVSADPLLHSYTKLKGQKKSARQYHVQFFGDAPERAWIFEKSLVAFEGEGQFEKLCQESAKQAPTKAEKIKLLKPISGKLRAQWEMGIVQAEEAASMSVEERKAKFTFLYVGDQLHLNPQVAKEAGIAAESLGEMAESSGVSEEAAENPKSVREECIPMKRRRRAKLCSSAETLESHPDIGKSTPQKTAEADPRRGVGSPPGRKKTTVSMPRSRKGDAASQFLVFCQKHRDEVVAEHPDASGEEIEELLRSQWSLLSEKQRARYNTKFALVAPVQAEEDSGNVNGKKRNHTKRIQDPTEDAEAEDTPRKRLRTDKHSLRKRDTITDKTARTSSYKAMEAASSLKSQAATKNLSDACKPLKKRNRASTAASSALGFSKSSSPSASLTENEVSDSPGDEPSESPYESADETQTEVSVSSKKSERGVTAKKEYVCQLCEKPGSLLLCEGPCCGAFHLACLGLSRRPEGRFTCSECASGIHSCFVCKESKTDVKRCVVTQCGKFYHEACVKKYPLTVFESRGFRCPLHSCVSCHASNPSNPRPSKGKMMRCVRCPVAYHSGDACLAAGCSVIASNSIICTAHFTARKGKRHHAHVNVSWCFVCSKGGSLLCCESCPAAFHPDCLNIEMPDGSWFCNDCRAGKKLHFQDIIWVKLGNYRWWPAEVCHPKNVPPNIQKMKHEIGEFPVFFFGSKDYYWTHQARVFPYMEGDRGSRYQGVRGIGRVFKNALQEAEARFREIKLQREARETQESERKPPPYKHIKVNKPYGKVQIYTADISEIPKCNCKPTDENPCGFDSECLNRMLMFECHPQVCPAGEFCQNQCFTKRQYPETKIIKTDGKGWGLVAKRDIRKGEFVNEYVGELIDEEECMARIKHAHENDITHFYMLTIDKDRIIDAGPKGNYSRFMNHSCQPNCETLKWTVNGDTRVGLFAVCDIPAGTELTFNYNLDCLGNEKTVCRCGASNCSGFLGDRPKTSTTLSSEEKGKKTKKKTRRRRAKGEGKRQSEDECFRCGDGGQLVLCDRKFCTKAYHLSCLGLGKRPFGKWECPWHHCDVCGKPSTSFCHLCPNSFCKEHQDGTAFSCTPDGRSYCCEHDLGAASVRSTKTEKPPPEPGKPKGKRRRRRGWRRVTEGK

[11] = target: Intestinal-type alkaline phosphatase (Mus musculus, UniProt P24822); experiment: PubChem AID 488785; type: functional
ORF 73 = ORF 73 (Human herpesvirus 8, UniProt O40947); experiment: KSHV LANA DNA-binding disruption – biochemical, fluorescence polarization, cherry-picked samples, dose response (AID 504725); design: species or system Human gammaherpesvirus 8;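 further: fluorescence polarization of a labeled DNA duplex reporting LANA DNA binding; potency is for inhibitors that block LANA binding to the DNA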
[12] = target: 1-phosphatidylinositol 4,5-bisphosphate phosphodiesterase beta-3 (Homo sapiens, UniProt Q01970); experiment: Fluorescence-based biochemical high throughput dose response assay to identify inhibitors of phospholipase C isozymes (PLC-B3).
[13] = Luminescence Cell-Based Dose Response HTS to Identify Inhibitors of 5'UTR Stem-Loop Driven Prion Protein mRNA Translation in H4 Neuroglioblastoma Cells. [Related pubchem assays: 1827 (Project Summary), 1813 (Primary HTS)]; type: functional
[14] = alpha-synuclein stem-loop luciferase translation blockers – H4 neuroglioma cells, luminescence, confirmation (AID 1988); type: functional, cell-based
[15] = luciferase reporter signal suppression in cells – H4 neuroglioma cells, luminescence, dose response (AID 1990); type: functional, cell-based
[16] = target: T6, Voltage-gated N-type calcium channel alpha-1B subunit/Amyloid beta A4 precursor protein-binding family A member 1 (Homo sapiens, UniProt Q00975+Q02410); type: protein assay
[17] = target: T6, Voltage-gated N-type calcium channel alpha-1B subunit/Amyloid beta A4 precursor protein-binding family A member 1; type: protein assay; remark: listed apart in the source
[18] = target: T6, Voltage-gated N-type calcium channel alpha-1B subunit/Amyloid beta A4 precursor protein-binding family A member 1; experiment: disruptors of Mint-PDZ/N-type channel peptide interaction – biochemical, HTRF, SAR follow-up (AID 2489); type: functional
Vero [19] = experiment: host cell viability loss, Vero E6 – synthesized analogs, cytotoxicity control for West Nile virus antiviral project, SAR follow-up (AID 2244); type: functional; conditions: Chlorocebus sabaeus
[20] = A Cell Based Assay for the Identification of Probe candidate Compounds with Anti- Venezuelan Equine Encephalitis virus. [Related pubchem assays: 2409, 2419, 1621, 2238, 2405, 2024, 2065, 2402, 2414, 1635, 1650, 2244 ]; type: functional
Vero [21] = experiment: Vero cell viability after compound exposure – synthesized analogs, set II, cytotoxicity control for West Nile virus antiviral project, SAR follow-up (AID 2402); type: functional; conditions: Chlorocebus sabaeus

In the case of `Cc1cc(NC(=O)c2cc(Cl)ccc2Cl)no1`, the AC50 [1] is reported as > 100 µM (inactive).
For `CCN1C/C(=C/c2cccs2)c2nc3ccccc3c(C(=O)O)c2C1`, the IC50 [2] was 9.41 µM (active), the EC50 [3] was 31.9 µM (active) and the EC50 [4] was 39.2 µM (active). For the same molecule, the IC50 (Protein Rev) was 17 µM (not active).
For `CN1CCN(c2ccccc2NC(=O)c2ccc(-c3cccc(Cl)c3)o2)CC1`, the IC50 (Beta-galactosidase) was > 66.6 µM (inactive) and the IC50 [5] was > 66.6 µM (inactive).
For `O=C(CN1C(=O)/C(=C/c2ccco2)SC1=S)Nc1ccc(O)c(C(=O)O)c1`, the IC50 (Bcl-2-like protein 1) was > 109 µM (not active), the IC50 [6] was 15.1 µM (active) and the IC50 [7] was 13.2 µM (active). The IC50 [8] was > 122 µM (inactive), the IC50 (Genome polyprotein) was > 100 µM (active) and the IC50 [9] was 18.5 µM (not active). For the same molecule, the IC50 (Large T antigen) was 54.3 µM (active), the AC50 (HeLa) was > 350 µM (inactive) and the AC50 [10] was > 20 µM (inactive). The IC50 [11] was 5.86 µM (active), the AC50 (ORF 73) was 98.5 µM (active) and the IC50 [12] was > 122 µM (inactive).
For `COc1ccc(N2C(=O)/C(=C\NNc3nc(C)cc(C)n3)c3ccccc3C2=O)cc1OC`, the IC50 (Beta-galactosidase) was > 66.6 µM (inactive), the IC50 [5] was 0.594 µM (active) and the EC50 [13] was 11.8 µM (active). For the same molecule, the EC50 [14] was 9.51 µM (active) and the EC50 [15] was 11.8 µM (active).
In the case of `CCCCc1ccc(/C=C2\C(=O)c3ccccc3C(O)=C2C(=O)OCC)cc1`, the IC50 [16] is reported as 17.8 µM (active), the IC50 [17] is reported as 5.63 µM (active) and the IC50 [18] is reported as 16.2 µM (active).
For `CCCCN(C(=O)c1ccccc1Cl)c1nc(-c2ccc(OC)cc2)cs1`, the CC50 (Vero [19]) was > 40 µM (active), the IC50 [20] was > 66.6 µM (active) and the CC50 (Vero [21]) was > 100 µM (active).
With `COc1ccc(NC(=O)c2ccc(-c3ccc(C(C)=O)cc3)o2)cn1` the IC50 [2] was 9.1 µM (active) and the IC50 (Protein Rev) was 16.4 µM (not active).
In the case of `CCCCCC1CC(COc2ccccc2)OC1=O` (stereo not drawn), the AC50 [1] is reported as 6.27 µM (active).
